Assay results reported in patent publication US20260108547A1, “LEVERAGING L-FUCOSE-MEDIATED SIGNALING TO INDUCE MONOCYTE-DERIVED DENDRITIC CELL POLARIZATION” (H. LEE MOFFITT CANCER CENTER AND RESEARCH INSTITUTE, INC., priority 2022, published 2026).

Test system: SW1 tumors
Assay: Volumetric tumor growth, SW1 melanoma in C3H/HeN mice (incl. immunodepletion, FTY720, anti-PD1)
Type: in vivo, mouse
Settings: SW1 model
Text: All animals were housed at the Vincent A. Stabile Research building animal facility at H. Lee Moffitt Cancer Center & Research Institute, which is fully accredited by the Association for Assessment and Accreditation of Laboratory Animal Care International (AAALAC, #434), and are managed in accordance with the Guide for the Care and Use of Laboratory Animals (“The Guide”), the Animal Welfare Regulations Title 9 Code of Federal Regulations Subchapter A, “Animal Welfare”, Parts 1-3 (AWR), the Public Health Service Policy on Humane Care and Use of Laboratory Animals (PHS Policy), and by the USF Institutional Animal Care and Use Committee's Principles and Procedures of Animal Care and Use (IACUC Principles). The experiments and protocols detailed in this study received institutional approval by the Moffitt IACUC (RIS00001625). Four-to-six-week-old female C3H/HeN and male C57BL6 mice were purchased from Charles Rivers Laboratories for the indicated experiments. Four-to-six-week-old male NSG mice from the Lau laboratory breeding colony were used for the indicated experiments. Power calculations were used to determine mouse cohort sizes to detect significant changes in tumor sizes. In general, 10 mice per indicated cohort to accommodate for incidental loss of mice due to issues beyond our control (e.g., incidental tumor ulceration that required exclusion from the study). Mouse tumor volumes were measured using length, width and depth divided by 2. At each experimental endpoint, mice were humanely euthanized using CO2 inhalation in accordance to the American Veterinary Medical Association guidelines.
For all mouse models, 1×10^6 melanoma cells were injected subcutaneously in the right hind flanks of each mouse. […] This dosage is within ranges for dietary supplementation with L-fucose and other similar dietary sugars (e.g., D-mannose) in other rodent studies. When the tumors reached −2 cm^3, the animals were sacrificed, and the tumors either processed for flow cytometric profiling or for histological analysis as indicated.
(§1) Control vs. mFuk±L-fucose models (FIG. 1 & FIG. 8): SW1 or SM1 mouse melanoma cells were injected into syngeneic C3H/HeN (or NSG) female or C57BL/6 male mice, respectively, as follows: parental SW1 cells for FIG. 1A; parental SM1 cells for FIG. 1E; SW1 cells stably expressing either empty vector (EV) or mouse fucose kinase (mFuk) for FIG. 1L; and parental SW1 cells for FIG. 1M.
as §1, with “L-fucose±FTY720” for “mFuk±L-fucose”, “2):” for “1 & FIG. 8):”, “respectively. Cells were injected” for “respectively,”, “1M. FTY720 was administered at 20 μg every 2 days starting on Day 12, just prior to the initiation of LF, until endpoint.” for “1M.”
Immunodepletion mouse models (FIG. 1 & FIG. 8): Three days prior to tumor engraftment, PBS (control) or ˜300 μg α-CD4 (20 mg/kg, for immunodepletion, GK1.5, Bioxcell (West Lebanon, NH)) or 0-CD8 (20 mg/kg, for immunodepletion, 2.43, Bioxcell (West Lebanon, NH)) was administered by intraperitoneal injection into the indicated cohorts of mice. Injections of immunodepletion antibody or PBS were continued every 3-4 days until endpoint. Syngeneic recipient C3H/HeN female or C57BL/6 male mice were injected with SW1 or SM1 cells, respectively. […]

## C[C@H](O)[C@@H](O)[C@@H](O)[C@H](O)C=O [L-fucose]
CD4+T cell depletion
  reduction of tumor growth: completely abrogated
L-fuc in combination with anti-PD1
  efficacy of anti-PD1 when combined with oral L-fuc: did not enhance efficacy of anti-PD1
Control and CD8+ T cell-depleted mice
  reduced tumor growth: > 50%
Oral L-fuc
  reduced tumor growth: ~50%
